{"source": "patent US6858589B2", "about": "“Methods of and compositions for potentiating the action of agents active on cell wall sites of the susceptible bacteria” (priority 1996, dated 2005)", "key": {"[1]": {"test_system": "blood culture isolate of cMRSA", "test": "Kill kinetics and regrowth patterns of cMRSA exposed to gentamicin profiles and constant beta-lactam", "type": "cell-based, Staphylococcus aureus", "protocol": "FIGS. 5a and 5b Kill kinetics and regrowth patterns of a clinical isolate of cMRSA.\nThe CMRSA isolate was cultured in the presence of gentamicin (Delta West, Bentleigh, Australia). An overnight culture of cMRSA in brain heart infusion broth (BHIB) (Oxoid, Bainstoke, England) was diluted to 10^7 CFU/ml in 0.1% peptone water (Oxoid, Bainstoke, England). A 1 ml sample of the 10^7 CFU/ml culture was added to the experimental culture broth, resulting in an initial density of 10^6 CFU/ml. In vitro concentration-time modeling of clinical plasma gentamicin concentration-time profiles assumed linear extrapolation of in vivo data as reported previously.^18 (Bastone et al Antimicrobial Agents and Chemotherapy 37(4): 914-917, 1993). […] Other profiles were constructed by linear extrapolation of these profiles and included 7 and 16 mg/l bolus and infusion profiles. Colony counts were performed at times 0, 0.5, 2.5, 4.5, 6.5, 8.5, 10.5, 24.5 and 48.5 hours for bolus profiles and times 0, 1, 3, 5, 7, 9, 11, 25 and 49 hours for infusion profiles.\nIn the experiments involving cephazolin the concentration was maintained at 4 mg/l in the BHIB for the entire 48.5 hours. For the experiments involving flucloxacillin the concentration of flucloxacillin was maintained at 2 mg/l for 48.5 hours. Colony counts were performed at times 0, 0,5, 2.5, 4.5, 6.5, 8.5, 10.5, 24.5 and 48.5 hours. […] These included cMRSA in a drug free broth, cMRSA exposed to a bolus profile of gentamicin with a target Cpeak 30 of 6 mg/l only, cMRSA exposed to […] of flucloxacillin only.\nAll experiments involved six replicates. Gentamicin concentrations were measured at times 0, 0.16, 0.33, 0.5, 2.5, 4.5, 6.5, 8.5, 10.5, 24.5 and 48.5 hours. Gentamicin assay concentrations were determined by fluorescence polarisation immunoassay (AxSYM, Abbot, Ill., U.S.A.) which has a threshold for detection of 0.3 mg/liter. […] (Gibaldi et al, pharmaceutics 2nd edn, 1982).\nThe blood culture cMRSA isolate was exposed to gentamicin in vitro simulating an in vivo bolus dosing regimen with varying 30 minute post dose concentrations of gentamicin. The same organism was then exposed to gentamicin in vitro simulating an in vivo bolus dosing regime with a 30 minute post dose concentration of 6 mg/l and constant concentration of 4 mg/l of cephazolin or 2 mg/l of flucloxacillin for 48 hours."}, "[2]": {"test": "Gentamicin concentration-time profile measured in the in vitro culture medium", "protocol": "The aminoglycoside reached a peak concentration of 4 mg/l 30 minutes post-dose and was removed from the E. coli culture by washing. Medium containing 0, 2, 2.5 and 3 mg/l gentamicin was reconstituted and added to the culture at 1 hour after initial exposure to the aminoglycoside (n=6).\nWith each antibiotic, concentration-time profiles similar to those observed in the blood of clinical patients following conventional intravenous dosing of an aminoglycoside (gentamicin) and pump-driven profiles of gentamicin and cephalosporin (cephazolin) were attained. The concentration-time profiles for each drug class have the general form shown in FIG. IA and FIG. IIIA of the accompanying drawings. Additionally a gentamicin profile of the form shown in FIG. IIIA was generated, which reached a peak of 12 mg/l over 3 hours, was maintained at 12 mg/l for a further hour, then was reconstituted to a range of steady-state concentrations (0, 0.5, 1.0, 2.0, 3.0, 4.0 mg/l) to yield the experimental results shown in Table 4."}, "[3]": {"test_system": "blood culture isolate of cMRSA", "test": "MIC and MBC for the cMRSA isolate", "type": "cell-based, Staphylococcus aureus", "conditions": "mecA positive", "protocol": "The student test was used for statistical analysis with a significant level of 0.05, it was performed using the Sigma Stat 32 program (SPSS Inc 1992-1997)."}, "[4]": {"conditions": "in vitro profile: peak 4 mg/liter, reconstituted to 3.0 mg/liter at 1 hr, maintained 0 hr (control)"}, "[5]": {"conditions": "in vitro profile: peak 4 mg/liter, reconstituted to 3.0 mg/liter at 1 hr, maintained 2 hr"}, "[6]": {"conditions": "in vitro profile: peak 4 mg/liter, reconstituted to 3.0 mg/liter at 1 hr, maintained 4 hr"}, "[7]": {"conditions": "in vitro profile: peak 4 mg/liter, reconstituted to 3.0 mg/liter at 1 hr, maintained 8 hr"}, "[8]": {"conditions": "in vitro profile: post-distribution peak 4 mg/liter, reconstituted at 1 hr to 0 mg/liter"}, "[9]": {"conditions": "in vitro profile: post-distribution peak 4 mg/liter, reconstituted at 1 hr to 2.0 mg/liter"}, "[10]": {"conditions": "in vitro profile: post-distribution peak 4 mg/liter, reconstituted at 1 hr to 2.5 mg/liter"}, "[11]": {"conditions": "in vitro profile: post-distribution peak 4 mg/liter, reconstituted at 1 hr to 3.0 mg/liter"}}, "data": [{"substance": "gentamicin", "values": [{"measurement": "Outcome of exposure", "setting": "[1]; each agent alone", "value": "complete kill or eradication was not achieved"}, {"measurement": "Time at which regrowth phase began", "setting": "[1]; gentamicin bolus and infusion profiles, target Cpeak30 7 mg/l", "value": 24.5, "unit": "h"}, {"measurement": "Regrowth", "setting": "[1]; gentamicin bolus and infusion profiles, target Cpeak30 16 mg/l", "value": "no regrowth"}, {"measurement": "Time at which early bactericidal effect was evident", "setting": "[1]; gentamicin only, bolus profile Cpeak30 6 mg/l", "value": "≤ 0.5", "unit": "h"}, {"measurement": "AUC 0-49 h", "setting": "[2]; [4]", "value": "3.93 ± 0.33", "unit": "mg·h/L"}, {"measurement": "Cmax", "setting": "[2]; [4]", "value": "6.12 ± 0.35", "unit": "mg/L"}, {"measurement": "Cmin", "setting": "[2]; [4]", "value": 0, "unit": "mg/L"}, {"measurement": "AUC 0-49 h", "setting": "[2]; [5]", "value": "124.98 ± 3.08", "unit": "mg·h/L"}, {"measurement": "Cmax", "setting": "[2]; [5]", "value": "6.23 ± 0.27", "unit": "mg/L"}, {"measurement": "Cmin", "setting": "[2]; [5]", "value": "2.45 ± 0.24", "unit": "mg/L"}, {"measurement": "AUC 0-49 h", "setting": "[2]; [6]", "value": "120.99 ± 6.05", "unit": "mg·h/L"}, {"measurement": "Cmax", "setting": "[2]; [6]", "value": "6.30 ± 0.45", "unit": "mg/L"}, {"measurement": "Cmin", "setting": "[2]; [6]", "value": "2.37 ± 0.34", "unit": "mg/L"}, {"measurement": "AUC 0-49 h", "setting": "[2]; [7]", "value": "119.78 ± 8.84", "unit": "mg·h/L"}, {"measurement": "Cmax", "setting": "[2]; [7]", "value": "6.37 ± 0.22", "unit": "mg/L"}, {"measurement": "Cmin", "setting": "[2]; [7]", "value": "2.35 ± 0.19", "unit": "mg/L"}, {"measurement": "AUC 0-49 h", "setting": "[2]; [8]", "value": "3.97 ± 0.09", "unit": "mg·h/L"}, {"measurement": "Cmax", "setting": "[2]; [8]", "value": "6.22 ± 0.33", "unit": "mg/L"}, {"measurement": "Cmin", "setting": "[2]; [8]", "value": 0, "unit": "mg/L"}, {"measurement": "AUC 0-49 h", "setting": "[2]; [9]", "value": "102.66 ± 6.91", "unit": "mg·h/L"}, {"measurement": "Cmax", "setting": "[2]; [9]", "value": "6.32 ± 0.25", "unit": "mg/L"}, {"measurement": "Cmin", "setting": "[2]; [9]", "value": "1.93 ± 0.24", "unit": "mg/L"}, {"measurement": "AUC 0-49 h", "setting": "[2]; [10]", "value": "124.40 ± 4.27", "unit": "mg·h/L"}, {"measurement": "Cmax", "setting": "[2]; [10]", "value": "6.23 ± 0.23", "unit": "mg/L"}, {"measurement": "Cmin", "setting": "[2]; [10]", "value": "2.47 ± 0.31", "unit": "mg/L"}, {"measurement": "AUC 0-49 h", "setting": "[2]; [11]", "value": "153.43 ± 11.01", "unit": "mg·h/L"}, {"measurement": "Cmax", "setting": "[2]; [11]", "value": "6.28 ± 0.37", "unit": "mg/L"}, {"measurement": "Cmin", "setting": "[2]; [11]", "value": "2.88 ± 0.23", "unit": "mg/L"}, {"measurement": "MBC", "setting": "[3]", "value": 4, "unit": "mg/L"}, {"measurement": "MIC", "setting": "[3]", "value": 1, "unit": "mg/L"}]}]}
